Structures can show the parent of a compound that is named as a salt.
Legend:
Format in all cases: cell-based, human
p62 = experiment: Western immunoblotting of autophagy marker p62; settings: U87-MG, 12 h treatment +/- 12 h HCQ
Method: (§1) U87-MG cells were plated at 500,000 cells/well in 6-well plates and allowed to adhere overnight (Falcon). Medium was removed and replaced with fresh medium containing drugs or compounds for the indicated timepoints. Cells were collected after treatment by washing with PBS, harvested with trypsin plus agitation to detach cells, pelleted in a centrifuge and resuspended in PBS to wash. Cells were transferred to 1.5 mL microcentrifuge tubes, pelleted, and resuspended in RIPA lysis buffer (50 mM Tris pH 8.0, 150 mM NaCl, 1% nonidet P40, 0.5% sodium deoxycholate, and 0.05% SDS) containing 1 mM NaVO4, 1 mM NaF, 1 mM phenylmethylsulfonyl fluoride, 0.1 μg/mL antipain, 1 μM aprotinin, 100 μM benzamidine HCl, 0.1 μg/mL leupeptin, 0.1 μg/mL pepstatin, and 0.1 μg/mL soybean trypsin inhibitor. Protein was quantified using a BCA assay kit (Pierce). 50 μg of protein was prepared in 1× Laemmli sample buffer (50 mM Tris pH 6.8, 0.02% w/v bromophenol blue, 2% w/v SDS, 10% v/v glycerol, 1% v/v beta-mercaptoethanol, 12.5 mM EDTA) and separated by SDS-PAGE on a 4-15% polyacrylamide gradient gel (Bio-Rad). […]

sequestosome-1 (p62) = experiment: Immunofluorescence staining for p62; settings: U87-MG, 24 h; 2 μM Y102, 50 μM HCQ; HCQ and Y102 compared with each other
Method: (§2) U87-MG cells were plated at a concentration of 50,000 cells/well onto precoated poly-D-lysine (PDL) coverslips (Neuvitro) in 24-well plates (Falcon) and allowed to adhere overnight. Medium was removed and replaced with treatment-laced media normalized to DMSO, and cells were treated for the indicated timepoints. At the time of collection, cells were washed with PBS and fixed with 4% paraformaldehyde without methanol (EMS) or 100% methanol (Fischer). Coverslips were washed with Tween20-containing PBS (PBST; Fischer). Following permeabilization with 0.5% Triton X-100 in PBS (Fischer), coverslips were blocked for 1 h at room temperature in IF Buffer (0.05% azide, 0.2% Triton X-100, 2% Normal Goat Serum or, for 8-OHG, Normal Donkey Serum). The following primary antibodies were used for 1 hour at room temperature unless specified: AlexaFluor 488 pre-conjugated anti-γ-H2AX (N1-431) mouse monoclonal (30 minutes; BD Biosciences), anti-cleaved caspase 3 (Asp175) rabbit polyclonal (Cell Signaling), anti-SQSTM1/p62 (D-3) mouse monoclonal (Santa Cruz), anti-8-Hydroxyguanosine goat polyclonal (1:200; Millipore), anti-LAMP1 (D4O1S) mouse monoclonal (O/N at 4° C.; Cell Signaling), anti-BNIP3L/Nix (D4R4B) rabbit monoclonal (O/N at 4° C.; Cell Signaling), anti-FLAG (M2) mouse monoclonal (2 hours at 37° C.; Sigma-Aldrich). […]

LC3-II = experiment: Western immunoblotting of autophagy marker LC3-I/II; settings: U87-MG, 12 h treatment +/- 12 h HCQ co-treatment, total 24 h
Method: as §1

mitochondria = experiment: MitoTracker Red CMXRos staining of the mitochondrial network; settings: U87-MG, 24 h; 2 μM Y102, 50 μM HCQ
Method: For MitoTracker Red CMXRos staining, 30 minutes prior to collection medium was removed and replaced with medium containing MitoTracker Red CMXRos at a final concentration of 100 nM (Molecular Probes). Following staining, cells were washed with PBS and fixed with 4% paraformaldehyde without methanol. Cells were washed with PBST, then permeabilized with 0.5% Triton X-100 in PBS. When co-staining with another marker, the staining procedure continued with the blocking step; otherwise, cells were stained with 0.33 μg/mL DAPI in PBS and mounted onto slides in ProLong Gold (Life Technologies).

BNIP3L/Nix = experiment: Immunofluorescence staining for mitophagy receptor BNIP3L/Nix; settings: U87-MG, 24 h; 2 μM Y102, 100 μM CoCl2; CoCl2 and Y102 compared with each other
Method: as §2

Compound | p62 expression (western immunoblotting) (p62) | p62 expression compared to DMSO (immunofluorescence) (sequestosome-1 (p62)) | LC3-II accumulation (western immunoblotting) (LC3-II) | mitochondrial phenotype (perinuclear clustering) (mitochondria) | expression/localization of BNIP3L/Nix on the mitochondria compared to DMSO control (BNIP3L/Nix)
CCN(CCO)CCCC(C)Nc1ccnc2cc(Cl)ccc12 (centres unmarked) [HCQ, Hydroxychloroquine Sulfate, reference compound] | increased | similar | resulted in LC3-II accumulation | not observed | –
[Cl-].[Cl-].[Co+2] [CoCl2, Cobalt (II) Chloride, reference compound] | – | – | – | – | similar

From patent publication US20220326218A1, “COMPOSITION AND METHOD FOR INHIBITING BORC COMPLEX TO TREAT CANCERS WITH NF1 DEFICIENCY AND DYSREGULATED RAS SIGNALING” (THE TRUSTEES OF DARTMOUTH COLLEGE, priority 2019, published 2022)
